# Reference: article PMC11853379, “Glioblastoma Cell Migration, Invasion and Vasculogenic Mimicry Downmodulated by Novel uPAcyclin Derivatives” (Cells, 2025)
# Where two headings read alike, the source gives them in different places. Positions of bridges follow the written chain, without caps; N, C: chain ends. Residues, ends and D or L forms follow the SMILES beside them.
# How the values were obtained:
# U87-MG cells = type: cell-based, human
# Description: (§1) The migration and invasion assays were performed with Boyden chambers, according to De Vincenzo et al., using 11 × 10^4 U87-MG and U251-MG glioblastoma cells/sample pre-treated for 40 min at 37 °C with the indicated effectors and then allowed to migrate for 3 h or to invade for 5 h at 37 °C toward 5% FBS in DMEM/0.1% BSA. The migrated or invaded cells were reported as a percentage of basal random migration or invasion and analyzed as reported in the Statistical Analyses section. The migration and invasion experiments were conducted in triplicate.
# (§2) Figure 1 Binding of Ala peptides to U87-MG cells and effect of uPAcyclin and Ala peptides on U87-MG cellular migration. (A) A total of 2 × 10^6 U87-MG cells were pre-incubated for 30 min at 4 °C with increasing concentrations of unlabeled uPAcyclin and Ala peptides and then exposed to 50 nM of FITC-uPAcyclin for 2 h at 4 °C. Cell surface-associated fluorescence, as percentage of the sample with […], is shown. Experiments were carried out in duplicate, and the data shown here are representative of three independent experiments. (B) 11 × 10^4 U87-MG cells/sample were pre-treated for 40 min at 37 °C with increasing concentrations of uPAcyclin or the indicated Ala peptides and then assayed in Boyden chambers for 5% FBS-dependent migration for 3 h at 37 °C. At the end of incubation, the filters were processed as described in the Methods section. For clarity here and in the following Figures, Ala-x indicates the peptide with substituted x-position. For both assays, the p-values are in the range of 0.005 ≤ p ≤ 0.001, apart from [Ala1]uPAcyclin in the migration assay with p ≤ 0.05.
# Alterations of the amino acid sequence may affect the peptide structure and may, in turn, alter its function. To test for differences in the inhibitory activity of the Ala-substituted peptides, U87-MG glioblastoma cells were subjected to a directional migration assay in Boyden chambers towards FBS, in the presence or in the absence of the indicated concentrations of uPAcyclin or one of its Ala-scan derivatives (Figure 1B).
# U251-MG cells = type: cell-based, human
# Description: as §1
# Figure 4 Binding and biological effect of selected Ala peptides on U251-MG migration and invasion. (A) A binding assay was performed using U251-MG cells, as described in the legend of Figure 1. (B) The directional migration toward 10% FBS of U251-MG cells was performed in Boyden chambers, in the presence of the indicated peptides, as described in the legend of Figure 1. (C) An invasion assay was performed toward 5% FBS of U251-MG cells in Boyden chambers, in the presence of the indicated peptides. For all migration and invasion assays, the p-values are ≤0.001, apart from [Ala^1]uPAcyclin with a p ≤ 0.05.
# [1] = molecular target: T1, αV integrin on U251-MG cells (Homo sapiens, UniProt P06756); experiment: Receptor binding assay: displacement of FITC-uPAcyclin from U251-MG cells; conditions: competition with FITC-uPAcyclin
# T1 construct: endogenous in cells; host or cells: U251-MG human glioblastoma cells (acid-treated, 4 °C)
# Description: (§3) The U87-MG and U251-MG cell lines were harvested and acid-treated, as described. Briefly, 2 × 10^6 cells/sample were pre-incubated for 30 min at 4 °C with uPAcyclin and Ala peptides and subsequently exposed to 50 nM FITC-uPAcyclin for 2 h at 4 °C, as described. The experiments were performed three times, with duplicate samples, and analyzed as reported in the statistical analysis.
# To rule out the possibility that the effects observed may be restricted to a single cell line, testing was extended to the U251-MG cell line, derived from a human glioblastoma with a mesenchymal-like phenotype with a lower proliferative capacity than U87-MG cells. This cell line was analyzed for the ability to specifically bind the FITC-uPAcyclin, in the presence of increasing concentrations of unlabeled [Ala^2,Ala^5]uPAcyclin, together with the parent uPAcyclin and the selected cyclopeptides [Ala^1]uPAcyclin, [Ala^4]uPAcyclin and [Ala^8]uPAcyclin (Figure 4A). In particular, [Ala^1]uPAcyclin and [Ala^8]uPAcyclin were selected for their contrasting affinity/activity observed on U87-MG glioblastoma cells, while [Ala^4]uPAcyclin was chosen to confirm the importance of Ser4 both in binding and in the anti-migratory activity of uPAcyclin.
# Figure 4 Binding and biological effect of selected Ala peptides on U251-MG migration and invasion. […]
# [2] = molecular target: T2, integrin αV receptors on the GBM cell surface (U87-MG cells) (Homo sapiens, UniProt P06756); experiment: Receptor binding assay: displacement of FITC-uPAcyclin from U87-MG living cells
# T2 construct: endogenous in cells; host or cells: U87-MG human glioblastoma cells (living, acid-treated, 4 °C)
# Description: as §3
# This assay confirmed that FITC-uPAcyclin binds specifically to both GBM cell lines and to the HEK-293/αV, whereas little interaction is detected with HEK-293 cells (Supporting Information, Table S7). […] To investigate the ability of novel Ala-scan peptides to compete with uPAcyclin for binding to integrin αV receptors on the GBM cell surface, the specific interaction of FITC-conjugated uPAcyclin with U87-MG living cells was tested via a receptor binding assay. U87-MG GBM cells were pre-incubated with increasing concentrations of unlabeled Ala peptides and then exposed to FITC-uPAcyclin (Figure 1A). […] When considering the relative Kdapp of uPAcyclin variants, it can be inferred that the replacement either of each of the three prolines (Pro^2, Pro^5, Pro^6) or Lys^1 increases the binding affinity of the resulting peptide compared to uPAcyclin. In contrast, the Ala mutation of other residues is detrimental to the peptide binding affinity.
# as §2
# T2 sequence (P06756 31-889 limits assumed): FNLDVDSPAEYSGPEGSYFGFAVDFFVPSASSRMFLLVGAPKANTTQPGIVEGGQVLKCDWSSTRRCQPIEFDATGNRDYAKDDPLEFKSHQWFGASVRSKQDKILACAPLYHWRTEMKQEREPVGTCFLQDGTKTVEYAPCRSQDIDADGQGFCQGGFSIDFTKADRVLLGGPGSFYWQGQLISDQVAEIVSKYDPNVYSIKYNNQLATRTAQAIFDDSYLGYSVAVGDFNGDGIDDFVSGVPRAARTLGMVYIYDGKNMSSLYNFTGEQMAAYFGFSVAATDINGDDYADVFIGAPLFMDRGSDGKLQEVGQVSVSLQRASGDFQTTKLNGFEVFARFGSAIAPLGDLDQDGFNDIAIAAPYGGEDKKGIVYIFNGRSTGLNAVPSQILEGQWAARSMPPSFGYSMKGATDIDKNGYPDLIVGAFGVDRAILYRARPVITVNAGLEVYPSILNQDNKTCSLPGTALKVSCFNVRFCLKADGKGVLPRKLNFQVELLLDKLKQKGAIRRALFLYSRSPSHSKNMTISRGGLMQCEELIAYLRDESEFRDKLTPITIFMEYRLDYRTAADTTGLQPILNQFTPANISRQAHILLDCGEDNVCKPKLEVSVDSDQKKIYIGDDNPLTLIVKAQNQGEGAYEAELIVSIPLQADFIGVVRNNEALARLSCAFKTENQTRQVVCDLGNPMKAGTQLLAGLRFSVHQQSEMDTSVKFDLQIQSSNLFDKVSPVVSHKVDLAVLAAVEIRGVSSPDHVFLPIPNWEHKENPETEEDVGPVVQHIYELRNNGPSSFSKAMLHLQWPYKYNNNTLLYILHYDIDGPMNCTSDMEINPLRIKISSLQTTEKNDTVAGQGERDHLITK
# T2 sequence (P06756 891-1048 limits assumed): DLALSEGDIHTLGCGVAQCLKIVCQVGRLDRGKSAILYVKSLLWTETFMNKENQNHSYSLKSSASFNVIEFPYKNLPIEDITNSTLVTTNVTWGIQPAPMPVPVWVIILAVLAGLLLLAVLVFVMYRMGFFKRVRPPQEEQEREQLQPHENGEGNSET
# T1 sequence (P06756 31-889 limits assumed): as the sequence (P06756 31-889 limits assumed) above
# T1 sequence (P06756 891-1048 limits assumed): as the sequence (P06756 891-1048 limits assumed) above
"IC50 of migration lower than the single variants (U87-MG cells; U87-MG migration, versus [Ala^2]uPAcyclin and [Ala^5]uPAcyclin)",IC50 (U251-MG cells; 3 h) [pM],IC50 (U251-MG cells; 5 h) [pM],"binding affinity compared to uPAcyclin (in words) ([2]; displacement of FITC-uPAcyclin, U87-MG cells)","Kd ([2]; competition with 50 nM FITC-uPAcyclin, 2 × 10^6 U87-MG cells, pre-incubation 30 min 4 °C, then 2 h 4 °C, three experiments in duplicate, read-out: Kdapp) [pM]",Compound,IC50 of migration lower / inhibitory activity higher than parental uPAcyclin (U87-MG cells; U87-MG migration) [fold],"inhibitory activity on cell migration, comparison (in words) (U87-MG cells; U87-MG migration toward 5% FBS)","migration reduced to (percentage of basal random migration) (U87-MG cells; U87-MG, 5% FBS, concentration not given)",binding to U251-MG cells (in words) [1],inhibition of invasion (in words) (U251-MG cells; U251-MG),inhibition of migration (in words) (U251-MG cells; U251-MG),concentration at which dose-dependent inhibitory activity starts (U87-MG cells; U87-MG migration toward 5% FBS) [pM],"effect on FBS-induced directional migration (in words) (U87-MG cells; U87-MG, 1 µM peptide)"
about 10 fold,< 1,< 1,,,"CC(=O)N[C@@H](CCCCN)C(=O)N[C@@H](C)C(=O)N[C@H]1CCC(=O)NCCCC[C@@H](C(N)=O)NC(=O)[C@H](CC(C)C)NC(=O)[C@H](CCC(=O)O)NC(=O)[C@H](CCC(=O)O)NC(=O)[C@@H]2CCCN2C(=O)[C@H](C)NC(=O)[C@H](CO)NC1=O [[Ala^2,Ala^5]uPAcyclin] (Ac-KAESAPEELK-NH2; lactam 3-10)",~100,most potent peptide of the series,about 70%,binds with the highest affinity,,,,
,,,reduced affinity,,CC(=O)N[C@@H](CCCCN)C(=O)N1CCC[C@H]1C(=O)N[C@H]1CCC(=O)NCCCC[C@@H](C(N)=O)NC(=O)[C@H](CC(C)C)NC(=O)[C@H](C)NC(=O)[C@H](CCC(=O)O)NC(=O)[C@@H]2CCCN2C(=O)[C@@H]2CCCN2C(=O)[C@H](CO)NC1=O [[Ala^8]uPAcyclin] (Ac-KPESPPEALK-NH2; lactam 3-10),,,,,most active among the Ala variants,most active among the Ala variants,,
,,,,~100,CC(=O)N[C@@H](CCCCN)C(=O)N1CCC[C@H]1C(=O)N[C@H]1CCC(=O)NCCCC[C@@H](C(N)=O)NC(=O)[C@H](CC(C)C)NC(=O)[C@H](CCC(=O)O)NC(=O)[C@H](CCC(=O)O)NC(=O)[C@@H]2CCCN2C(=O)[C@@H]2CCCN2C(=O)[C@H](CO)NC1=O [uPAcyclin] (Ac-KPESPPEELK-NH2; lactam 3-10),,,,dose-dependent decrease in cell-associated fluorescence,,,1,abolishes FBS-induced directional migration
